Measured values from ChEMBL document CHEMBL5528002, “Identification of selective 5-LOX and FLAP inhibitors as novel anti-inflammatory agents by ligand-based virtual screening” (Eur J Med Chem, 2024).
Activity calls are given as the source filed them. No cut-off for these calls is given here.

What was measured:
Macrophage cell line [1] = test: Effect on lipid mediator formation in human M1-like phenotype MDM cells by measuring 5-HEPE formation at 10 uM pre-incubated for 15 mins followed by SACM stimulation and measured after 90 mins by UPLC-MS/MS analysis (reference value: 560 +/- 160 pg/ml); format: functional; settings: time 105 min, 1.75 h
Macrophage cell line [2] = test: Effect on lipid mediator formation in human M2-like phenotype MDM cells by measuring RvD5 formation at 10 uM pre-incubated for 15 mins followed by SACM stimulation and measured after 90 mins by UPLC-MS/MS analysis relative to control; format: functional; settings: time 105 min, 1.75 h
[3] = target: T1, Polyunsaturated fatty acid 5-lipoxygenase (Homo sapiens) (UniProt P09917); test: Inhibition of 5-LOX in human Neutrophil assessed as enzyme remaining activity at 10 uM using arachidonic acid as substrate preincubated with compound for 15 mins followed by substrate and A23187 addition measured after 10 mins by RP-HPLC analysis relative to control; format: cell-based; settings: time 25.0 min
T1 sequence (whole entry): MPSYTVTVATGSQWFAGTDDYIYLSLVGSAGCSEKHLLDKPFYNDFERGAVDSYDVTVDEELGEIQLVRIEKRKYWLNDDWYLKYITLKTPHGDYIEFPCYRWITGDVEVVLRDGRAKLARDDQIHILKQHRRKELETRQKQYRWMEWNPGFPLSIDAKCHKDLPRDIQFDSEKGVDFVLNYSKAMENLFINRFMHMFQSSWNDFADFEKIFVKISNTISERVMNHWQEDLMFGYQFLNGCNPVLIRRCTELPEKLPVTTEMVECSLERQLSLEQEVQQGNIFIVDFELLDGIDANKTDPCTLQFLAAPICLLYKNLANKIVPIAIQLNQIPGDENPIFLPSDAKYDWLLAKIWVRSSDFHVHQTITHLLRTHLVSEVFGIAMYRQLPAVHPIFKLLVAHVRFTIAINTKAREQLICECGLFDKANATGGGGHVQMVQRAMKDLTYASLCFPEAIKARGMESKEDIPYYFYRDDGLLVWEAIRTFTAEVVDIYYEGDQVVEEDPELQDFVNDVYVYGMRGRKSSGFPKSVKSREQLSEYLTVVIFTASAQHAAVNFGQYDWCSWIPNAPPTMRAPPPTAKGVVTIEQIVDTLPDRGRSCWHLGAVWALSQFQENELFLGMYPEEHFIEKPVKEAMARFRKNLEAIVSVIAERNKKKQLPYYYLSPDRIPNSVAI

Macrophage cell line [4] = test: Effect on lipid mediator formation in human M1-like phenotype MDM cells by measuring arachidonic acid formation at 10 uM pre-incubated for 15 mins followed by SACM stimulation and measured after 90 mins by UPLC-MS/MS analysis (reference value: 69242 +/- 58 pg/ml); format: functional; settings: time 105 min, 1.75 h
Macrophage cell line [5] = test: Effect on lipid mediator formation in human M1-like phenotype MDM cells by measuring 7-HDHA formation at 10 uM pre-incubated for 15 mins followed by SACM stimulation and measured after 90 mins by UPLC-MS/MS analysis (reference value: 118 +/- 14 pg/ml); format: functional; settings: time 105 min, 1.75 h
Macrophage cell line [6] = test: Effect on lipid mediator formation in human M1-like phenotype MDM cells by measuring DHA formation at 10 uM pre-incubated for 15 mins followed by SACM stimulation and measured after 90 mins by UPLC-MS/MS analysis relative to control; format: functional; settings: time 105 min, 1.75 h
Macrophage cell line [7] = test: Effect on lipid mediator formation in human M1-like phenotype MDM cells by measuring LTB4 formation at 10 uM pre-incubated for 15 mins followed by SACM stimulation and measured after 90 mins by UPLC-MS/MS analysis (reference value: 1413 +/- 452 pg/ml); format: functional; settings: time 105 min, 1.75 h
Macrophage cell line [8] = test: Effect on lipid mediator formation in human M2-like phenotype MDM cells by measuring EPA formation at 10 uM pre-incubated for 15 mins followed by SACM stimulation and measured after 90 mins by UPLC-MS/MS analysis (reference value: 23813 +/- 1138 pg/ml); format: functional; settings: time 105 min, 1.75 h
[9] = target: T2, Prostaglandin E synthase (Homo sapiens) (UniProt O14684); test: Inhibition of human mPGES-1 at 10 uM relative to control
T2 sequence (whole entry): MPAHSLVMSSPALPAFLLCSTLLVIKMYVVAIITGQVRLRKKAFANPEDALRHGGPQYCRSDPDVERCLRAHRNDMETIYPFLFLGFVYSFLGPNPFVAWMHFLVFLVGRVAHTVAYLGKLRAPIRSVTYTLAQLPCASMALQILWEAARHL

Macrophage cell line [10] = test: Effect on lipid mediator formation in human M2-like phenotype MDM cells by measuring EPA formation at 10 uM pre-incubated for 15 mins followed by SACM stimulation and measured after 90 mins by UPLC-MS/MS analysis relative to control; format: functional; settings: time 105 min, 1.75 h
Macrophage cell line [11] = test: Effect on lipid mediator formation in human M2-like phenotype MDM cells by measuring PGD2 formation at 10 uM pre-incubated for 15 mins followed by SACM stimulation and measured after 90 mins by UPLC-MS/MS analysis relative to control; format: functional; settings: time 105 min, 1.75 h
Macrophage cell line [12] = test: Effect on lipid mediator formation in human M2-like phenotype MDM cells by measuring 17-HDHA formation at 10 uM pre-incubated for 15 mins followed by SACM stimulation and measured after 90 mins by UPLC-MS/MS analysis (reference value: 4702 +/- 885 pg/ml); format: functional; settings: time 105 min, 1.75 h
Macrophage cell line [13] = test: Effect on lipid mediator formation in human M2-like phenotype MDM cells by measuring 14-HDHA formation at 10 uM pre-incubated for 15 mins followed by SACM stimulation and measured after 90 mins by UPLC-MS/MS analysis relative to control; format: functional; settings: time 105 min, 1.75 h
Macrophage cell line [14] = test: Effect on lipid mediator formation in human M1-like phenotype MDM cells by measuring 4-HDHA formation at 10 uM pre-incubated for 15 mins followed by SACM stimulation and measured after 90 mins by UPLC-MS/MS analysis (reference value: 58 +/- 9 pg/ml); format: functional; settings: time 105 min, 1.75 h

SMILES	Activity (Macrophage cell line [1])	Activity (Macrophage cell line [2])	Activity [3]	Activity (Macrophage cell line [4])	Activity (Macrophage cell line [5])	Activity (Macrophage cell line [6])	Activity (Macrophage cell line [7])	Activity (Macrophage cell line [8])	inhibition [9]	Activity (Macrophage cell line [10])	Activity (Macrophage cell line [11])	Activity (Macrophage cell line [12])	Activity (Macrophage cell line [13])	Activity (Macrophage cell line [14])
Oc1ccc(CCC2CCC(c3ccc(O)cc3)CO2)cc1 (stereo not drawn)	98 pg/mL	105%	24.3%	74786 pg/mL	45 pg/mL	94%	79 pg/mL	28427 pg/mL	inactive	119%	131%	6992 pg/mL	139%	44 pg/mL
COc1ccc(C2=C/C(=C/c3ccc(O)cc3O)C(=O)O2)cc1	62 pg/mL	167%	18.6%	80565 pg/mL	36 pg/mL	108%	115 pg/mL	24465 pg/mL	inactive	103%	201%	8152 pg/mL	179%	47 pg/mL
